Twelve compounds from ChEMBL document CHEMBL1201862, “PubChem BioAssay data set” (2004) can be followed below.

The structures appear in SMILES notation.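 Following 48 hours of exposure in 96-well plates, responses at five concentrations were used to interpolate endpoints linearly. GI50: concentration for 50% inhibition of growth.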 Activity calls are given as the source filed them. Rule as the data show it: active = GI50 up to about 1.1 µM and inactive = higher. Bounds are passed on as bounds.

Among the test systems are UACC-62; SF-295; T47D; BT-549; Hs-578T; U-251; CCRF-CEM; MDA-MB-435; SNB-75; MDA-MB-231; 786-0; SNB-19; HT-29; HOP-92; SN12C; K562; DU-145.
What all share (assay): NCI anticancer screen, dose series, 48 h

With `COc1ccc2c(c1)CCCc1c-2nc2ccccc2c1N`, the GI50 was 12.3 µM (inactive) with UACC-62; 11.1 µM (inactive) in the experiment with SF-295; 12.4 µM (inactive) in the experiment on T47D; 16.2 µM (inactive) with BT-549; 17.8 µM (inactive) with Hs-578T; 12.7 µM (inactive) in the experiment on U-251. For the same compound, the GI50 is 5.24 µM (inactive) in the experiment on CCRF-CEM; 12 µM (inactive) in the experiment with MDA-MB-435; 10.7 µM (inactive) in the experiment on SNB-75; 5.7 µM (inactive) with MDA-MB-231; 6.11 µM (inactive) with 786-0; 15.9 µM (inactive) in the experiment on SNB-19. In addition, the GI50 with HT-29 is 3.3 µM (inactive); in the experiment with HOP-92 it was 5.73 µM (inactive); with SN12C, 4.38 µM (inactive); with K562 it was 5.14 µM (inactive); in the experiment on DU-145, 13.4 µM (inactive).

As to `N=C(N)NS(=O)(=O)c1ccc(Nc2c3ccccc3nc3c(C(=O)NCCO)cccc23)cc1`, the GI50 is 0.167 µM (active) with UACC-62; 0.263 µM (active) with SF-295; 0.148 µM (active) in the experiment on T47D; 0.143 µM (active) with BT-549; 0.209 µM (active) in the experiment on Hs-578T; 0.184 µM (active) in the experiment on U-251. Also, the GI50 was 0.416 µM (active) in the experiment on CCRF-CEM; 0.173 µM (active) in the experiment with MDA-MB-435; 22.6 µM (inactive) in the experiment on SNB-75; 0.207 µM (active) in the experiment on MDA-MB-231; 0.191 µM (active) in the experiment on 786-0; 0.221 µM (active) in the experiment on SNB-19. The GI50 in the experiment on HT-29 is 0.16 µM (active); in the experiment on HOP-92, 0.192 µM (active); in the experiment with SN12C, 0.202 µM (active); with K562 it was 0.216 µM (active); in the experiment on DU-145, 0.214 µM (active).

Regarding `Brc1sc(Br)c2c1[C@H](Br)C[C@@H]2Br`, the GI50 was 31.3 µM (inactive) with UACC-62; > 10 µM (inactive) in the experiment on SF-295; 26.1 µM (inactive) in the experiment on T47D; 29 µM (inactive) with BT-549; 26.3 µM (inactive) in the experiment on Hs-578T; 36.6 µM (inactive) in the experiment with U-251. For the same compound, the GI50 in the experiment on CCRF-CEM was 31.1 µM (inactive); in the experiment with MDA-MB-435, 35.5 µM (inactive); with SNB-75 it was 30.1 µM (inactive); with MDA-MB-231, 31.1 µM (inactive); with 786-0, 29.9 µM (inactive); in the experiment on HT-29, > 100 µM (inactive). Moreover, the GI50 with HOP-92 was 21.5 µM (inactive); in the experiment on SN12C, 31.1 µM (inactive); with K562, 39.4 µM (inactive); in the experiment on DU-145, 24.3 µM (inactive).

Consider `C/C(CC1C2CCCC1C2)=N\NC(N)=O` (stereo not given), for which the GI50 in the experiment on UACC-62, in the experiment on SF-295, in the experiment on T47D, in the experiment on BT-549, with Hs-578T and in the experiment on U-251 was > 100 µM (inactive) in each case. Besides, the GI50 with CCRF-CEM, in the experiment on MDA-MB-435, with SNB-75, with MDA-MB-231, with 786-0 and in the experiment on SNB-19 was > 100 µM (inactive) in each case. Besides, the GI50 in the experiment with HT-29, in the experiment with HOP-92, in the experiment on SN12C and in the experiment with DU-145 was > 100 µM (inactive) throughout.

With `CN(C)CCCCN1c2ccccc2Sc2ccc(N=[N+]=[N-])cc21`, the GI50 was 1.88 µM (inactive) with UACC-62; 5.66 µM (inactive) in the experiment on SF-295; 4.32 µM (inactive) in the experiment with T47D; 11.8 µM (inactive) with BT-549; 5.22 µM (inactive) with Hs-578T; 3.13 µM (inactive) in the experiment on U-251. Besides, the GI50 was 2.69 µM (inactive) with CCRF-CEM; 2.06 µM (inactive) in the experiment with MDA-MB-435; 2.62 µM (inactive) with SNB-75; 7.28 µM (inactive) with MDA-MB-231; 8.69 µM (inactive) in the experiment on 786-0; 8.85 µM (inactive) in the experiment on SNB-19. For the same compound, the GI50 with HT-29 was 2.22 µM (inactive); in the experiment on HOP-92, 3.56 µM (inactive); with SN12C, 8.43 µM (inactive); in the experiment with K562, 2.05 µM (inactive); with DU-145 it was 5.7 µM (inactive).

Regarding `O=C1NC(=O)/C(=C/c2ccc(S(=O)(=O)N/N=C/c3ccccc3)cc2)N1`, the GI50 with UACC-62, with SF-295, in the experiment on T47D, in the experiment on BT-549, in the experiment on Hs-578T and with U-251 was > 100 µM (inactive) throughout. Further, the GI50 with CCRF-CEM, in the experiment with MDA-MB-435, in the experiment on SNB-75, in the experiment on MDA-MB-231, in the experiment on 786-0 and in the experiment with SNB-19 was > 100 µM (inactive) each time. Further, the GI50 in the experiment with HT-29, in the experiment on HOP-92, with SN12C, in the experiment with K562 and in the experiment on DU-145 was > 100 µM (inactive) throughout.

On to `O=C(NCCNCCCNC(=O)c1cc(-c2ccccc2)nc2ccccc12)c1cccc(OCc2ccccc2)c1OCc1ccccc1`, for which the GI50 in the experiment on UACC-62 is 1.93 µM (inactive); in the experiment with SF-295, 1.64 µM (inactive); in the experiment with T47D, 2.18 µM (inactive); in the experiment with BT-549, 1.72 µM (inactive); with Hs-578T, 2.58 µM (inactive); in the experiment with U-251, 1.94 µM (inactive). Further, the GI50 in the experiment on CCRF-CEM was 1.79 µM (inactive); with MDA-MB-435 it was 1.68 µM (inactive); in the experiment on SNB-75, 1.87 µM (inactive); in the experiment with MDA-MB-231, 1.71 µM (inactive); in the experiment on 786-0 it was 1.71 µM (inactive); in the experiment on SNB-19 it was 1.78 µM (inactive). Also, the GI50 in the experiment on HT-29 is 1.63 µM (inactive); in the experiment with HOP-92, 1.53 µM (inactive); with SN12C, 1.77 µM (inactive); in the experiment on K562, 1.74 µM (inactive); in the experiment on DU-145, 1.81 µM (inactive).

On to `O=C(Cc1csc2[n+]1C(=O)/C(=C/c1ccc(Cl)cc1)S2)Nc1ccccc1`, for which the GI50 with UACC-62 is 10 µM (inactive); with SF-295, 17.5 µM (inactive); in the experiment with T47D it was 16.4 µM (inactive); in the experiment with BT-549 it was 22.5 µM (inactive); with Hs-578T, 27.7 µM (inactive); in the experiment on U-251 it was 16.2 µM (inactive). Moreover, the GI50 in the experiment with CCRF-CEM was 23.8 µM (inactive); in the experiment on MDA-MB-435, 25.3 µM (inactive); with SNB-75, 23.5 µM (inactive); in the experiment with MDA-MB-231, 14.8 µM (inactive); in the experiment with 786-0, 25.1 µM (inactive); with SNB-19, 34.9 µM (inactive). Besides, the GI50 with HT-29 is 24.2 µM (inactive); in the experiment on HOP-92 it was 26.6 µM (inactive); in the experiment with SN12C, 32.1 µM (inactive); in the experiment on K562 it was 21.7 µM (inactive); in the experiment with DU-145 it was 31.4 µM (inactive).

As to `O=C(O)C1C(Br)(c2ccccc2)C1(Br)c1ccccc1` (stereo not given), the GI50 is 17.9 µM (inactive) with UACC-62; 37.9 µM (inactive) in the experiment with SF-295; 17.6 µM (inactive) in the experiment with T47D; 19.9 µM (inactive) with BT-549; 37.8 µM (inactive) in the experiment with Hs-578T; 27.6 µM (inactive) in the experiment on U-251. For the same compound, the GI50 with MDA-MB-435 is 41.2 µM (inactive); in the experiment with SNB-75, 35.3 µM (inactive); in the experiment with MDA-MB-231 it was 39.7 µM (inactive); in the experiment with 786-0, 32.3 µM (inactive); in the experiment on SNB-19, 27.4 µM (inactive); in the experiment with HT-29 it was 20.7 µM (inactive). Besides, the GI50 in the experiment with HOP-92 is 42.7 µM (inactive); in the experiment with SN12C, 34.4 µM (inactive); in the experiment with K562 it was 20.1 µM (inactive); with DU-145, > 100 µM (inactive).

With `CC1CCC2(CC1)NC1=C(CC(C)CC1)C1=C2CC(C)CC1` (stereo not given), the GI50 with UACC-62 was > 10 µM (inactive); in the experiment with SF-295, 18.1 µM (inactive); in the experiment with T47D it was 24.3 µM (inactive); with BT-549, 19.1 µM (inactive); in the experiment on Hs-578T, 26.9 µM (inactive); in the experiment with U-251 it was 18.4 µM (inactive). The GI50 was 18.1 µM (inactive) in the experiment on CCRF-CEM; > 10 µM (inactive) in the experiment on MDA-MB-435; 19.1 µM (inactive) in the experiment on SNB-75; 20.5 µM (inactive) with MDA-MB-231; 19.5 µM (inactive) with 786-0; 23.5 µM (inactive) with SNB-19. The GI50 in the experiment on HT-29 was 16.7 µM (inactive); in the experiment with HOP-92, 18.3 µM (inactive); in the experiment on K562, 17.2 µM (inactive); in the experiment with DU-145, 38.3 µM (inactive).

As for `CN1COCc2c1ccc1cc3ccc4c(c3nc21)COCN4S(C)(=O)=O`, the GI50 is > 100 µM (inactive) with UACC-62; > 100 µM (inactive) with SF-295; > 100 µM (inactive) in the experiment on T47D; > 100 µM (inactive) in the experiment with BT-549; 95.9 µM (inactive) with Hs-578T; > 100 µM (inactive) in the experiment on U-251. In addition, the GI50 was > 100 µM (inactive) in the experiment with CCRF-CEM; > 100 µM (inactive) with MDA-MB-435; 20 µM (inactive) in the experiment with SNB-75; > 100 µM (inactive) with MDA-MB-231; 73.6 µM (inactive) in the experiment with 786-0; > 100 µM (inactive) in the experiment on SNB-19. The GI50 in the experiment with HT-29, in the experiment on HOP-92, in the experiment on SN12C, in the experiment with K562 and in the experiment on DU-145 was > 100 µM (inactive) in each case.

For the compound `CN(C)c1nc2sc3c(c2c(=O)o1)CCCC3`, the GI50 was 41.8 µM (inactive) with UACC-62; 31.6 µM (inactive) in the experiment with SF-295; 26.8 µM (inactive) with T47D; 12.3 µM (inactive) with BT-549; 16.7 µM (inactive) with Hs-578T; 32.7 µM (inactive) with U-251. Also, the GI50 in the experiment on CCRF-CEM was 39.4 µM (inactive); in the experiment on MDA-MB-435, 31.5 µM (inactive); with SNB-75 it was 30.1 µM (inactive); in the experiment on MDA-MB-231, 41.5 µM (inactive); with 786-0, 45.4 µM (inactive); in the experiment on SNB-19 it was 25.6 µM (inactive). Further, the GI50 in the experiment on HT-29 is 21 µM (inactive); with HOP-92, 36.9 µM (inactive); in the experiment with SN12C, 36.9 µM (inactive); with K562, 32.4 µM (inactive); in the experiment with DU-145 it was 27.8 µM (inactive).
